# Experimental data taken from ChEMBL document CHEMBL4480424, “Bialternacins A-F, Aromatic Polyketide Dimers from an Endophytic Alternaria sp” (J Nat Prod, 2019).
# Active and inactive are the calls of the source. The rule behind the calls is not given here.
# Target: Acetylcholinesterase (Homo sapiens, UniProt P22303)
# Test: Inhibition of AChE (unknown origin) using acetylthiocholine iodide as substrate after 5 mins by spectrophotometric analysis
# Chain of Acetylcholinesterase (P22303 whole entry): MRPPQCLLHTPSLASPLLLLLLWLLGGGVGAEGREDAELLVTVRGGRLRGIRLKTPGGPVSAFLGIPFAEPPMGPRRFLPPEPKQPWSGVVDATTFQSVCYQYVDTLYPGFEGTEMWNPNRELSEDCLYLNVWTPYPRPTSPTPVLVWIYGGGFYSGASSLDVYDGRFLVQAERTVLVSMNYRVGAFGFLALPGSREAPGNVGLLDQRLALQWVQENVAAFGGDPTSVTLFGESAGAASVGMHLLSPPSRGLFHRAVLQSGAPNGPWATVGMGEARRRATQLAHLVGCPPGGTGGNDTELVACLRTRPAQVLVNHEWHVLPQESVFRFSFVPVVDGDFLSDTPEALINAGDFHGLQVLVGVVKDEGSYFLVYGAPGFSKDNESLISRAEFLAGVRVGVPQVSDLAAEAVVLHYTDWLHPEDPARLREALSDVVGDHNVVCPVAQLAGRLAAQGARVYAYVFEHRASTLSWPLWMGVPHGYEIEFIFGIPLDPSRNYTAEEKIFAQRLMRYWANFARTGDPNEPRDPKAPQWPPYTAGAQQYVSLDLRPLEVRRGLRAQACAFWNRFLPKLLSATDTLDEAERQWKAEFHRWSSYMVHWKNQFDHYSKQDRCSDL
SMILES,IC50 [µM],inhibition
COc1cc(O)c2c(c1)C1=C(c3c(O)c(O)cc(C)c3-c3cc(OC)cc(O)c3C(=O)O)C(=O)C(O)=CC1(C)OC2=O (stereo not given),15.5,inactive
COc1cc(O)c2c(c1)C1=C(C3=C4c5cc(OC)cc(O)c5C(=O)OC4(C)C=C(O)C3=O)C(=O)C(O)=CC1(C)OC2=O (stereo in doubt; (-)-6),–,inactive
COc1cc(O)c(C(=O)O)c(-c2c(C)cc(O)c3oc4c(c23)C2(OC(=O)c3c(O)cc(OC)cc32)C(C)=CC4=O)c1 (stereo in doubt; (+)-2),–,inactive
COc1cc(O)c(C(=O)O)c(-c2c(C)cc(O)c3oc4c(c23)C2(OC(=O)c3c(O)cc(OC)cc32)C(C)=CC4=O)c1 (stereo in doubt; (-)-2),–,inactive
COc1cc(O)c2c(c1)C1=C(C3=C4c5cc(OC)cc(O)c5C(=O)OC4(C)C=C(O)C3=O)C(=O)C(O)=CC1(C)OC2=O (stereo in doubt; (+)-6),–,inactive
COc1cc(O)c2c(c1)C1=CC3=Nc4cc(C)c(-c5cc(OC)cc(O)c5C(=O)O)cc4O[C@@]3(O)C[C@@]1(C)OC2=O,–,inactive
COc1cc(O)c(C(C)=O)c(-c2c(C)cc(O)c3oc4c(O)cc(C)c(-c5cc(OC)cc(O)c5C(=O)O)c4c23)c1,68.3,–
COc1cc(O)c2c(c1)C1=CC3=Nc4cc(C)c(-c5cc(OC)cc(O)c5C(=O)O)cc4O[C@]3(O)C[C@]1(C)OC2=O,–,inactive
COc1cc(O)c(C(=O)O)c(-c2c(C)cc(O)c(O)c2-c2c(O)c(O)cc(C)c2-c2cc(OC)cc(O)c2C(=O)O)c1,–,inactive
